Measurements as given in patent US12571794B2, “Epigen AU/11: a natural matrix for restoring homeostasis in cancer cell-infiltrated tissue” (priority 2024, dated 2026).
Where a name gives a salt, the structure may show the parent alone. Read-outs that look alike come from different tables or passages of the source.

Assays:
[1] = design: species or system mice; conditions: mouse, in vivo
Procedure: Furthermore, to better understand the potential systemic toxicity of the treatments, an Irwin test was conducted, evaluating a range of physiological and behavioural parameters, including general behaviour, CNS excitement, movement coordination, muscle tone, reflex responses, and autonomic signs.
Parameters assessed include general behaviour, central nervous system (CNS) excitement, movement coordination, muscle tone, reflex responses, and autonomic signs.
(§1) The risk (intended as side effects) was estimated through the observation of behavioural parameters (impacting the behaviour itself, the locomotor system, muscle strength and nervous reflexes) and through the potential weight loss of the animal.

[2] = system: osteosarcoma spheroids (143B, SaOS-2, U-2 OS); test: 3D spheroids toxicity, Cell Titer-Glo 3D (ATP); assay type: cell-based; conditions: 72 hours; EpigenAU/11 0.22 mg/ml, CDDP 15 μg/ml
Procedure: The Cell Titer-Glo® 3D Viability Assay was used to quantify ATP as a marker of cell viability. Results are expressed as the survival ratio (%) between treated cells and their corresponding untreated controls.
In addition to the findings above, several partners contributed to the development of more complex in vitro models, including 3D spheroids, which better mimic the three-dimensional structure of tumours and their microenvironment.
The viability of both control and treated cells was assessed 72 hours after the start of treatment by quantifying ATP levels using the Cell Titer-Glo® 3D Viability Assay following the manufacturer's instructions.

FaDu xenografts [3] = assay type: in vivo, mice; design: key to Loss of Straightening reflex / Loss of Cleaning / Loss of Curiosity / Loss of Reactivity / Loss of Spontaneous activity: untreated animal value = 0, plus treated animal value
Source text: as §1
Data obtained by animal testing, considered in the context of the risk, are behavioural parameters and body weight loss at the end of experimentation.
The behavioural parameters monitored are listed below: • 1. Loss of Spontaneous activity • 2. Loss of Cleaning • 3. Loss of Curiosity • 4. Loss of Reactivity • 5. Loss of Straightening reflex • 6. Loss of Physical strength • 7. Impairment of Palpebral opening • 8. Palpebral reflex • 9. Tremors • 10. Pallor • 11. Stereotypies • 12. Passivity
The values of the parameters 1-8 are normalized as: “Not treated animal value” (always equal to 0)+“Treated animal value”.
The values of the parameters 9-12 are normalized as: “Not treated animal value”-“Treated animal value”.
The potential weight loss of the treated animals was also assessed.” Data were processed using the formula: 1−[“Body weight of treated animals (day of observation: 27)/body weight of untreated animals (day of observation: 19)]
Data were calculated as “Reduction in the size of tumour mass” by the formula: 1−[“Tumour mass size collected from treated animals (day of observation: 27)/Tumour mass size collected from untreated animals (day of observation: 19)]

[4] = system: explanted biopsies from FaDu graft; assay type: cell-based, human cells grown in immunocompromised mice; conditions: 72 hours ex vivo; EpigenAU/11 50 mg/ml (pH 5.6), cisplatin 150 μg/ml, HCl to pH 5.6
Procedure: Analysis of cell viability in explanted biopsies from the FaDu (9A) and A431 (9B) cell lines was performed after 72 hours of ex vivo treatment. […] Cell viability was analysed using a flow cytometer with the Pacific Blue™ Annexin V/SYTOX™ AADvanced™ Apoptosis Kit, following the manufacturer's instructions. Viability is expressed as a percentage, with untreated controls set at 100%. One-way ANOVA analysis followed by Dunnett's test confirmed significant differences among the groups. Data are represented as mean±SD; *p<0.03;***p<0.0002.
(§3) Analysis of cell viability in explanted biopsies from the FaDu cell lines was performed after 72 hours of ex vivo treatment. […] Cell viability was analysed using a flow cytometer with the Pacific Blue™ Annexin V/SYTOX™ AADvanced™ Apoptosis Kit, following the manufacturer's instructions. Viability is expressed as a percentage, with untreated controls set at 100%. […]
as §3
Following the 72-hour treatment period, cell viability was analysed using flow cytometry.

[5] = system: non-cancerous spheroids (MSC, HuDe); test: 3D spheroids toxicity, Cell Titer-Glo 3D (ATP); assay type: cell-based, human; conditions: 72 hours; EpigenAU/11 0.22 mg/ml, CDDP 15 μg/ml
Source text: Additionally, two 3D spheroids from non-cancerous cell lines were included in the study: • MSC (BM-derived Mesenchymal Stromal Cells): Multipotent stromal cells derived from bone marrow. • HuDe (Human Dermal Fibroblasts): Non-cancerous dermal fibroblast cells.

FaDu xenografts [6] = conditions: for MITOSIS (amount of mitosis in 2.37 mm^2; 10x): H&E staining of excised tumours
Procedure: Tumour growth curve of FaDu xenografts in athymic mice over 27 days of treatment. […] Tumour volume was measured every other day. Data are represented as mean±SEM; *p<0.05; **p<0.02. One-way ANOVA followed by Fisher's LSD test was used for statistical analysis.
In this investigation, an in vivo trial utilizing FaDu cells was performed to explore this interaction.
All treatments commenced when tumours reached a volume of 0.1 cm^3.
The response in mice was evaluated using criteria akin to RECIST 1.1 guidelines.
For this purpose, immunocompromised mice bearing xenografted FaDu head and neck squamous carcinoma cells were included in the study once tumours reached a volume of 100 mm^3.

[7] = system: explanted biopsies from A431 graft; test: Ex vivo explanted biopsies, cell viability by flow cytometry (Annexin V); assay type: cell-based, human cells grown in immunocompromised mice; conditions: 72 hours ex vivo; EpigenAU/11 50 mg/ml (pH 5.6), cisplatin 150 μg/ml, HCl to pH 5.6
Procedure: Analysis of cell viability in explanted biopsies from the FaDu (9A) and A431 (9B) cell lines was performed after 72 hours of ex vivo treatment. […] Cell viability was analysed using a flow cytometer with the Pacific Blue™ Annexin V/SYTOX™ AADvanced™ Apoptosis Kit, following the manufacturer's instructions. Viability is expressed as a percentage, with untreated controls set at 100%. […] Data are represented as mean±SD; *p<0.03;***p<0.0002.
Analysis of cell viability in explanted biopsies from the A431 cell lines was performed after 72 hours of ex vivo treatment. […] Cell viability was analysed using a flow cytometer with the Pacific Blue™ Annexin V/SYTOX™ AADvanced™ Apoptosis Kit, following the manufacturer's instructions. Viability is expressed as a percentage, with untreated controls set at 100%. […] Data are represented as mean±SD; **p<0.02.
To further substantiate these findings, an ex vivo test was conducted using explanted biopsies from the FaDu and A431 cell lines. These biopsies were generated by injecting the cells into immunocompromised mice, thereby creating a more intricate three-dimensional structure that closely mimics the tumour microenvironment. […] Following the 72-hour treatment period, cell viability was analysed using flow cytometry.

A431 xenografts = assay type: in vivo, athymic mice; conditions: excised at end of 15-day treatment, six mice
Procedure: Tumour growth curve of A431 xenografts in athymic mice over 15 days of treatment. […] Tumour volume was measured every other day. Data are represented as mean±SEM; **p<0.02; ****p<0.001.
In this trial, athymic mice were subcutaneously injected with 1×10^6 A431 cells into their flank to develop xenograft tumours.

[8] = system: biopsies derived from the FaDu graft; test: Genome-wide gene expression profiling, ex vivo; assay type: cell-based, human; conditions: 6 hours; EpigenAU/11 50 mg/ml, cisplatin 150 μg/ml, alone and combined
[9] = system: bladder tumour organoid Bladder 41; test: Tumour organoid viability with chemotherapeutics, CellTiter-Glo 3D; assay type: cell-based, human; conditions: Bladder Cancer patient-derived tumour organoids; chemotherapy combined with EpigenAU/11
Procedure: (§2) 39A bladder 38, 39B bladder 41, 39C breast 203, 39D Endometrium 12. […] Breast organoids (Breast 203): Treated sequentially with paclitaxel (P, 50 nM)+carboplatin (C, 100 nM) for 72 hours, followed by epirubicin (E, 1 μM)+cyclophosphamide (Cy 7 μM) for an additional 72 hours. Endometrial organoid (Endometrium 12): Treated with carboplatin (C, 100 nM), paclitaxel (P, 100 nM), or their combination for 72 hours. ATP content, measured by CellTiter-Glo® 3D, is expressed as a percentage of cell viability, with untreated controls set at 100%. Statistical analysis was performed using one-way ANOVA followed by Dunnett's test, with significant differences denoted by p<0.002 (**) and p<0.0001 (****). Data are presented as mean±SD.

[10] = system: Head and Neck Cancer patient-derived tumour organoids; test: EpigenAU/11 combinations with chemotherapeutics on patient-derived tumour organoids (summary table); assay type: cell-based; conditions: chemotherapy combined with EpigenAU/11
[11] = system: FaDu, A431 and HuDe cells; test: Intracellular pH (pHrodo Green AM); assay type: cell-based, human; conditions: EpigenAU/11 0.66 mg/ml or HCl, one hour
Source text: Cells were labelled with pHrodo™ Green AM Intracellular pH Indicator according to manufacturers' instructions. pH values were normalized with respect to cell number, measured by Nuclear Mask Red staining.

[12] = system: endometrial tumour organoid Endometrium 12; conditions: 72 hours; EpigenAU/11 0.66 mg/ml, carboplatin 100 nM, paclitaxel 100 nM
Procedure: as §2

N.N.[Cl][Pt][Cl] [Cisplatin]
reduction in overall biological functions [1]: 30-40%
viability (ATP levels) of cancerous spheroids [2]: indiscriminately killed both cancerous and healthy cells
Weight loss (FaDu xenografts [3]; 1−[body weight treated day 27/untreated day 19]): 0.22
Reduction in the size of tumour mass (FaDu xenografts [3]; 1−[tumour mass size treated day 27/untreated day 19]): 0.64
IN VIVO BENEFIT SCORE (FaDu xenografts [3]; mouse, in vivo): 0.64
Impairment of Palpebral opening (FaDu xenografts [3]; normalised risk parameter): 2.00
Loss of Cleaning (FaDu xenografts [3]; normalised risk parameter): 1.50
Loss of Curiosity (FaDu xenografts [3]; normalised risk parameter): 1.60
Loss of Palpebral reflex (FaDu xenografts [3]; normalised risk parameter): 1.20
Loss of Physical strength (FaDu xenografts [3]; normalised risk parameter): 1.30
Loss of Reactivity (FaDu xenografts [3]; normalised risk parameter): 1.40
Loss of Spontaneous activity (FaDu xenografts [3]; normalised risk parameter): 1.80
Loss of Straightening reflex (FaDu xenografts [3]; normalised risk parameter): 1.40
Pallor (FaDu xenografts [3]; normalised risk parameter): 2.00
Passivity (FaDu xenografts [3]; normalised risk parameter): 1.10
Stereotypies (FaDu xenografts [3]; normalised risk parameter): 0.00
Tremors (FaDu xenografts [3]; normalised risk parameter): 0.80
IN VIVO RISK SCORE (FaDu xenografts [3]; sum of risk parameters): 16
cell death [4]: around 25%
viability (ATP levels) of healthy spheroids [5]: indiscriminately killed both cancerous and healthy cells
tumour progression (FaDu xenografts [6]; 27 days, cisplatin 2 mg/kg i.p. every two days): stabilization of the disease
MITOSIS (amount of mitosis in 2.37 mm^2; 10x) (FaDu xenografts [6]): 14 (±8)
MITOSIS (amount of mitosis in 2.37 mm^2; 10x) (FaDu xenografts [6]; listed as cisplatin): 14
Size of tumor masses (Mean) (FaDu xenografts [6]; day of observation 27): 0.50
MEAN tumour mass (FaDu xenografts [6]; explanted after 27 days of treatment, five mice): 454 mg
Body weight (Mean) (FaDu xenografts [6]; mouse, in vivo): 29.12
cell death [7]: around 30%
MEAN tumour mass (A431 xenografts): 368 mg
modulation of cancer-related pathways (gene expression) [8]: comparable downregulatory effect across many of the same pathways
Cooperative Effect with EpigenAU/11 [9]: YES
Cooperative Effect with EpigenAU/11 [10]: YES

Cl [HCl, hydrochloric acid]
cell death [4]: no significant signs of cell death
cell death [7]: no significant signs of cell death
intracellular pH [11]: no observable effects

N.N.O=C([O-])C1(C(=O)[O-])CCC1.[Pt+2] [carboplatin]
viability (ATP, untreated = 100%) [12]: 85.1%
